Results published in US8946124B2, “Substituted 3-(biphenyl-3-yl)-8,8-difluoro-4-hydroxy-1-azaspiro[4.5]dec-3-en-2-ones for therapy and halogen-substituted spirocyclic ketoenols” (Bayer Intellectual Property GmbH, priority 2011, dated 2015).

Key:
Phaedon cochleariae = assay: Phaedon test (PHAECO spray treatment); details: 500 g/ha, after 7 days
[1] = Maximum tolerated dose (MTD) in the mouse; assay type: in vivo; details: female nude mice, 21 days
Description: The MTD was defined as the highest dose which could be administered without any animal dying during the treatment phase, and without any body weight loss of more than 10% compared to the initial weight.
Example 1-1 was administered to female nude mice (NMRI nu/nu):
(§1) Administration route: per os
• (Solutol HS15: polyoxyethylene ester of 12-hydroxystearic acid) Administration volume:10 ml/kg Protocol: see Table 7
The treatment phase was followed by an observation phase of 21 days.

[2] = Octanol/water distribution coefficient (log P/D), isocratic HPLC method; assay type: physicochemical; details: pH 7.4; mean (range, n); read-out: logP/D pH 7.4
Excerpt: The distribution coefficient octanol/water P or D is a key parameter for estimating membrane penetration and permeability. It is defined as the ratio of the equilibrium concentrations of a substance in the two-phase system octanol/water.
[formula] P=partition D=distribution c(octanol)=concentration of the substance in the octanol phase c(water)=concentration of the substance in the aqueous phase
It is usually stated in form of the decadic logarithm (log P or log D).
log P describes the distribution behavior of a substance exclusively present in its neutral form. logD describes the distribution behavior of a substance at a certain pH; depending on the ionisation constant pKa of the substance, some of the substance may be present in ionic form, and some in neutral form.
The log P/D of the active compounds was determined using an isocratic HPLC method (HPLC=high performance liquid chromatography) (literature: OECD Guideline for Testing of Chemicals No. 117). The method is based on the correlation of the HPLC retention time of the test substance to that of reference substances with known distribution coefficients.
The test substance was employed as a 10 mM solution in DMSO (DMSO=dimethyl sulfoxide). 10 μl of this solution were made up to 100 μl with a methanol/water mixture in a ratio of 7+3.
The nine reference substances were dissolved individually in methanol. 100 μl each of the stock solutions were added to an HPLC vial and mixed with 300 μl of water.
A formamide solution was used to determine the hold-up time. To this end, 7 mg of formamide were dissolved in 10 ml of methanol. 100 μl of this stock solution were mixed with 500 μl of methanol and 200 μl of water.
All solutions were chromatographed using a flow rate of 1.00 ml/min.
Injection Protocol: formamide, references, test substance 1, test substance 2, . . . , formamide, references.
Evaluation of the retention times was carried out in a diode array detector (DAD) at 200-400 nm. Via the molecular mass, the identity of the test substance was checked using the downstream mass spectrometer.
The HPLC run was evaluated using the Waters software Masslynx 4.1.
The log P/D values were calculated using the software “POW Determination” (proprietary development).

[3] = system: PC-3 prostate carcinoma xenograft; assay: In-vivo efficacy in the PC3 xenograft model in the mouse; details: 17 days, 2 administrations per day; for T/C: final tumor weight
Description: as §1
Administration volume: 10 ml/kg

Tetranychus urticae = assay: Tetranychus test, OP-resistant (TETRUR spray treatment); assay type: in vivo; details: 100 g/ha, after 6 days
Description: (§2) Solvents: 78.0 parts by weight of acetone
After 6 days, the effect in % is determined.
Tetranychus Test, OP-Resistant (TETRUR Spray Treatment)

Myzus persicae = assay: Myzus test (MYZUPE spray treatment); assay type: in vivo; details: 500 g/ha, after 6 days
[4] = Pharmacokinetic parameters in the rat (i.v. and intragastric); assay type: in vivo; details: intragastric vs. i.v.
Description: For this, the test substances were applied in dissolved form both for intravenous, and for intragastric application, wherein compatible solubilizers such as PEG400 and/or ethanol were used in a compatible amount.
The test substances were applied at a dose of 0.1-1 mg/kg. Administration was as a bolus injection in the male rat and as an infusion in the female dog (15 min). At various time points after the bolus injection, and before and after the 15-minute infusion, blood samples of about 100-150 μl were removed via a catheter either from the jugular vein (rat) or from the saphenous vein (dog). Lithium-heparin was added as anticoagulant to the blood samples and they were stored in a refrigerator until required for further processing. After centrifugation of the samples for 15 min at 3000 rpm, an aliquot of 100 μl was taken from the supernatant (plasma) and was precipitated by adding 400 μl of cold ACN or methanol (absolute). The precipitated samples were frozen-out at […] overnight, then centrifuged again at 3000 rpm for 15 min, before 150 μl of the clear supernatant were removed to determine the concentration. The analysis was effected by means of an Agilent 1200 HPLC system with connected LCMS/MS detection. […]

Spodoptera frugiperda = Spodoptera frugiperda test (SPODFR spray treatment); assay type: in vivo; details: 500 g/ha, after 7 days
Excerpt: as §2

[5] = 80 mg/kg day 1-3, 70 mg/kg from day 4 onwards, per os

Q: Which results are given for `Cc1ccc(-c2ccc(Cl)c(F)c2)cc1C1=C(O)C2(CCC(F)(F)CC2)NC1=O` [Example 1-1, 3-(4′-Chloro-3′-fluoro-4-methylbiphenyl-3-yl)-8,8-difluoro-4-hydroxy-1-azaspiro[4.5]dec-3-en-2-one]?
A: effect in % (beetle larvae killed) (Phaedon cochleariae): 100%; Deaths ([1]; 12.5 mg/kg per os, 1 administration per day): 0 of 4; Deaths ([1]; 25 mg/kg per os, 1 administration per day): 0 of 4; Deaths ([1]; 50 mg/kg per os, 1 administration per day): 0 of 4; Deaths ([1]; 50 mg/kg per os, 2 administrations per day): 0 of 4; Deaths ([1]; 75 mg/kg per os, 1 administration per day): 0 of 4; Deaths ([1]; 100 mg/kg per os, 1 administration per day): 0 of 4; chromatographic logD [2]: 1.9; Deaths ([3]; 40 mg/kg per os): 0 of 9; Deaths [3, 5]: 0 of 9; T/C ([3]; 40 mg/kg per os): 0.26; T/C [3, 5]: 0.26; effect in % (spider mites killed) (Tetranychus urticae): 90%; effect in % (aphids killed) (Myzus persicae): 90%; F [4]: 95%; effect in % (caterpillars killed) (Spodoptera frugiperda): 100%
